Source: PubChem BioAssay (NCI)
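1) Cells in 96-well plates. 2) Compound, 48 h, 5 concentrations. 3) Linear interpolation between surrounding doses. 4) Unreached endpoint = highest concentration. At the TGI there is no net growth.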

What was measured:
Experiment in all cases: NCI-60 cell line screen, 48 h
786-0 renal = system: 786-0 renal
CAKI-1 renal = system: CAKI-1 renal
CCRF-CEM leukemia = system: CCRF-CEM leukemia
COLO 205 colon = system: COLO 205 colon
HCC-2998 colon = system: HCC-2998 colon
HCT-116 colon = system: HCT-116 colon
HOP-62 NSCLC = system: HOP-62 NSCLC
HOP-92 NSCLC = system: HOP-92 NSCLC
HT29 colon = system: HT29 colon
IGROV1 ovarian = system: IGROV1 ovarian
MDA-N = system: MDA-N
NCI-H23 lung = system: NCI-H23 lung
NCI-H460 lung = system: NCI-H460 lung
NCI/ADR-RES ovarian = system: NCI/ADR-RES ovarian
PC-3 prostate = system: PC-3 prostate
RXF 393 renal = system: RXF 393 renal
SK-OV-3 ovarian = system: SK-OV-3 ovarian
SN12C renal = system: SN12C renal
ACHN renal = system: ACHN renal
HS 578T breast = system: HS 578T breast

| SMILES | TGI (786-0 renal) | TGI (CAKI-1 renal) | TGI (CCRF-CEM leukemia) | TGI (COLO 205 colon) | TGI (HCC-2998 colon) | TGI (HCT-116 colon) | TGI (HOP-62 NSCLC) | TGI (HOP-92 NSCLC) | TGI (HT29 colon) | TGI (IGROV1 ovarian) | TGI (MDA-N) | TGI (NCI-H23 lung) | TGI (NCI-H460 lung) | TGI (NCI/ADR-RES ovarian) | TGI (PC-3 prostate) | TGI (RXF 393 renal) | TGI (SK-OV-3 ovarian) | TGI (SN12C renal) | TGI (ACHN renal) | TGI (HS 578T breast) |
| --- | --- | --- | --- | --- | --- | --- | --- | --- | --- | --- | --- | --- | --- | --- | --- | --- | --- | --- | --- | --- |
| COc1ccc(Nc2nc3ccc(C(F)(F)F)cc3nc2C(=O)O)cc1 | > 100 µM | > 100 µM | 63.5 µM | > 100 µM | 50 µM | > 100 µM | > 100 µM | 92 µM | > 100 µM | 39.5 µM | > 100 µM | 93.3 µM | 83.7 µM | > 100 µM | 92.4 µM | 62.6 µM | 71.5 µM | > 100 µM | – | – |
| COc1c(Br)cc(/C=C(\C#N)c2ccccn2)cc1Br | 25.6 µM | > 100 µM | > 100 µM | > 100 µM | > 100 µM | > 100 µM | 89.1 µM | – | > 100 µM | > 100 µM | – | > 100 µM | > 100 µM | > 100 µM | > 100 µM | 75.1 µM | > 100 µM | > 100 µM | > 100 µM | – |
| CCCCCC1=C2C(c3ccc(OC)cc3)=C(N)C(c3ccc(OC)cc3)=C3NC(=O)C(C=C1)C32 (configuration not stated) | > 100 µM | > 100 µM | > 100 µM | > 100 µM | > 100 µM | > 100 µM | > 100 µM | 60.7 µM | > 100 µM | > 100 µM | > 100 µM | > 100 µM | > 100 µM | > 100 µM | > 100 µM | 54.1 µM | > 100 µM | > 100 µM | > 100 µM | – |
| CCn1c(O)c(C=Nc2ccccc2)s/c1=N/Nc1nc(-c2ccc(O)c(O)c2)cs1 | > 100 µM | > 100 µM | 57 µM | > 100 µM | – | > 100 µM | > 100 µM | > 100 µM | > 100 µM | > 100 µM | – | > 100 µM | > 100 µM | > 100 µM | > 100 µM | > 100 µM | > 100 µM | > 100 µM | > 100 µM | > 100 µM |
| O=S(=O)(Oc1ccc2ccccc2c1-c1c(OS(=O)(=O)C(F)(F)F)ccc2ccccc12)C(F)(F)F | > 100 µM | > 100 µM | > 100 µM | > 100 µM | > 100 µM | > 100 µM | > 100 µM | 34.2 µM | > 100 µM | > 100 µM | – | > 100 µM | > 100 µM | > 100 µM | > 100 µM | > 100 µM | > 100 µM | – | > 100 µM | > 100 µM |
| Cc1nc2ccc(N)cc2[nH]c1=O | > 100 µM | > 100 µM | > 100 µM | > 100 µM | > 100 µM | > 100 µM | > 100 µM | > 100 µM | – | > 100 µM | – | – | > 100 µM | – | – | – | > 100 µM | – | > 100 µM | – |
| Cc1ccc(S(=O)(=O)Oc2nc3nc4ccccc4nc3nc2OS(=O)(=O)c2ccc(C)cc2)cc1 | > 100 µM | > 100 µM | > 100 µM | > 100 µM | > 100 µM | > 100 µM | – | – | > 100 µM | > 100 µM | – | > 100 µM | > 100 µM | > 100 µM | > 100 µM | > 100 µM | > 100 µM | > 100 µM | > 100 µM | > 100 µM |
| C[N+]1(C)C[C@@H](O)C[C@@H]1C(=O)[O-] | > 100 µM | – | > 100 µM | > 100 µM | > 100 µM | > 100 µM | > 100 µM | > 100 µM | > 100 µM | > 100 µM | – | > 100 µM | > 100 µM | – | – | > 100 µM | > 100 µM | > 100 µM | > 100 µM | – |
| COc1ccc(/C=C2\N=C(c3ccccc3)OC2=O)cc1OC(C)=O | > 100 µM | – | 74.4 µM | > 100 µM | > 100 µM | > 100 µM | > 100 µM | > 100 µM | > 100 µM | > 100 µM | – | > 100 µM | > 100 µM | > 100 µM | > 100 µM | > 100 µM | > 100 µM | > 100 µM | > 100 µM | > 100 µM |
| N#CC1CCCCC1NC1(C#N)CCCCC1 (configuration not stated) | > 100 µM | > 100 µM | > 100 µM | > 100 µM | > 100 µM | – | > 100 µM | – | > 100 µM | > 100 µM | – | > 100 µM | – | – | – | > 100 µM | > 100 µM | > 100 µM | – | – |
| COC1=CC(=O)C2C(C1=O)C(c1ccc(Cl)cc1)[C@@H]2C (some centres not stated) | 57.2 µM | > 100 µM | 93.2 µM | > 100 µM | > 100 µM | 33.7 µM | > 100 µM | 54.8 µM | > 100 µM | > 100 µM | – | > 100 µM | 75.6 µM | – | – | 79.1 µM | > 100 µM | – | 31.9 µM | – |
| COc1ccc2c(c1)/C(=C\c1c(Cl)n(-c3ccccc3)c3ccccc13)C(=O)N2 | 29.2 µM | 56.7 µM | 55.8 µM | 21.9 µM | 22.2 µM | 14.6 µM | 33.6 µM | 17.6 µM | 14.2 µM | 27.9 µM | – | 38.4 µM | 68.2 µM | 7.98 µM | > 100 µM | 11.2 µM | > 100 µM | 35.5 µM | 45.1 µM | 5.28 µM |
| N=c1oc2ccccc2cc1C(=O)Nc1nccs1 | 6.3 µM | > 88.1 µM | 20 µM | 45.6 µM | > 100 µM | > 100 µM | 64.7 µM | > 100 µM | > 100 µM | > 49.2 µM | – | > 100 µM | > 76.5 µM | > 100 µM | > 100 µM | > 83.9 µM | > 83.4 µM | > 100 µM | 26.8 µM | > 100 µM |
